In patent publication US6737383B1, “Herbicidal oxadiazolidines” (priority 1999, dated 2004):

Assays:
[1] = system: bedstraw; test: Test B pre/postemergence bedstraw; format: in vivo, Galium aparine
Summary of the method: (§1)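 Test chemicals in a non-phytotoxic solvent mixture with surfactant were sprayed preemergence onto planted seeds and postemergence onto plants 2 to 18 cm tall (1- to 4-leaf stage). After twelve to sixteen days in a greenhouse, injury was visually rated against untreated controls from 0 (no effect) to 10 (complete control).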

[2] = system: crabgrass; test: Test B pre/postemergence crabgrass; format: in vivo, Digitaria sanguinalis
Summary of the method: as §1

[3] = system: cocklebur; test: Test B pre/postemergence cocklebur; format: in vivo, Xanthium strumarium
Summary of the method: as §1

[4] = system: blackgrass; test: Test B pre/postemergence blackgrass; format: in vivo, Alopecurus myosuroides
Summary of the method: as §1

[5] = system: rape; test: Test B pre/postemergence rape; format: in vivo, Brassica napus
Summary of the method: as §1

[6] = system: wild oat; test: Test B pre/postemergence wild oat; format: in vivo, Avena fatua
Summary of the method: as §1

[7] = system: corn; test: Test B pre/postemergence corn; format: in vivo, Zea mays
Summary of the method: as §1

[8] = system: pigweed; test: Test B pre/postemergence pigweed; format: in vivo, Amaranthus retroflexus
Summary of the method: as §1

[9] = system: velvetleaf; test: Test B pre/postemergence velvetleaf; format: in vivo, Abutilon theophrasti
Summary of the method: as §1

[10] = system: surinam grass; test: Test B pre/postemergence surinam grass; format: in vivo, Brachiaria decumbens
Summary of the method: as §1

[11] = system: purple nutsedge; test: Test B pre/postemergence purple nutsedge; format: in vivo, Cyperus rotundus
Summary of the method: as §1

[12] = system: morningglory; test: Test B pre/postemergence morningglory; format: in vivo, Ipomoea hederacea
Summary of the method: as §1

[13] = system: soybean; test: Test B pre/postemergence soybean; format: in vivo, Glycine max
Summary of the method: as §1

[14] = system: wheat; test: Test B pre/postemergence wheat; format: in vivo, Triticum aestivum
Summary of the method: as §1

[15] = system: giant foxtail; test: Test B pre/postemergence giant foxtail; format: in vivo, Setaria faberii
Summary of the method: as §1

[16] = system: sugar beet; test: Test B pre/postemergence sugar beet; format: in vivo, Beta vulgaris
Summary of the method: as §1

[17] = Postemergence, Rate 62 g/ha, scale 0 to 10, 0 is no effect, 10 is complete control
[18] = Postemergence, Rate 125 g/ha, scale of 0 to 10 where 0 is no effect and 10 is complete control
[19] = Postemergence, Rate 500 g/ha, scale 0 (no effect) to 10 (complete control)
[20] = Preemergence, Rate 250 g/ha, scale 0 (no effect) to 10 (complete control)
[21] = Rate 62 g/ha, Preemergence, scale 0 to 10
[22] = Rate 125 g/ha, Preemergence, scale 0 to 10 (0 no effect, 10 complete control)
[23] = Rate 250 g/ha, Postemergence, scale 0 to 10, 0 is no effect, 10 is complete control
[24] = Rate 500 g/ha, Preemergence, scale 0 to 10 (0 no effect, 10 complete control)

Structure (SMILES): CON=CC(C)n1c(=O)on(C(=O)N(c2ccccc2)C(C)C)c1=O (centres unmarked) [Compound 790]
- Plant response rating, Bedstraw [1, 17]: 0
- Bedstraw plant response rating [1, 18]: 0
- Bedstraw plant response rating [1, 19]: 5
- Bedstraw plant response rating [1, 20]: 7
- Bedstraw plant response rating [1, 21]: 0
- Bedstraw plant response rating [1, 22]: 3
- Bedstraw plant response rating [1, 23]: 0
- Bedstraw plant response rating [1, 24]: 9
- Plant response rating, Crabgrass [2, 17]: 9
- Crabgrass plant response rating [2, 19]: 9
- Crabgrass plant response rating [2, 20]: 10
- Crabgrass plant response rating [2, 21]: 10
- Crabgrass plant response rating [2, 22]: 10
- Crabgrass plant response rating [2, 23]: 9
- Crabgrass plant response rating [2, 24]: 10
- Plant response rating, Cocklebur [3, 17]: 0
- Cocklebur plant response rating [3, 18]: 0
- Cocklebur plant response rating [3, 19]: 0
- Cocklebur plant response rating [3, 20]: 10
- Cocklebur plant response rating [3, 21]: 0
- Cocklebur plant response rating [3, 22]: 0
- Cocklebur plant response rating [3, 23]: 0
- Cocklebur plant response rating [3, 24]: 10
- Plant response rating, Blackgrass [4, 17]: 4
- Blackgrass plant response rating [4, 18]: 5
- Blackgrass plant response rating [4, 19]: 5
- Blackgrass plant response rating [4, 20]: 9
- Blackgrass plant response rating [4, 21]: 8
- Blackgrass plant response rating [4, 22]: 9
- Blackgrass plant response rating [4, 23]: 5
- Blackgrass plant response rating [4, 24]: 10
- Plant response rating, Rape [5, 17]: 0
- Rape plant response rating [5, 18]: 0
- Rape plant response rating [5, 19]: 3
- Rape plant response rating [5, 21]: 2
- Rape plant response rating [5, 22]: 4
- Rape plant response rating [5, 23]: 3
- Rape plant response rating [5, 24]: 8
- Plant response rating, Wild oats [6, 17]: 0
- Wild oats plant response rating [6, 19]: 3
- Wild oats plant response rating [6, 21]: 0
- Wild oats plant response rating [6, 22]: 6
- Wild oats plant response rating [6, 23]: 0
- Wild oats plant response rating [6, 24]: 10
- Plant response rating, Corn [7, 17]: 0
- Corn plant response rating [7, 18]: 2
- Corn plant response rating [7, 19]: 4
- Corn plant response rating [7, 20]: 8
- Corn plant response rating [7, 21]: 2
- Corn plant response rating [7, 22]: 7
- Corn plant response rating [7, 23]: 4
- Corn plant response rating [7, 24]: 9
- Plant response rating, Redroot pigweed [8, 17]: 0
- Redroot pigweed plant response rating [8, 18]: 5
- Redroot pigweed plant response rating [8, 19]: 5
- Redroot pigweed plant response rating [8, 21]: 2
- Redroot pigweed plant response rating [8, 22]: 6
- Redroot pigweed plant response rating [8, 23]: 5
- Redroot pigweed plant response rating [8, 24]: 10
- Plant response rating, Velvetleaf [9, 17]: 4
- Velvetleaf plant response rating [9, 19]: 7
- Velvetleaf plant response rating [9, 21]: 0
- Velvetleaf plant response rating [9, 22]: 2
- Velvetleaf plant response rating [9, 23]: 5
- Velvetleaf plant response rating [9, 24]: 7
- Plant response rating, B. signalgrass [10, 17]: 2
- B. signalgrass plant response rating [10, 18]: 6
- B. signalgrass plant response rating [10, 20]: 9
- B. signalgrass plant response rating ([10]; Rate 62 g/ha, Preemergence, scale 0 (no effect) to 10 (complete control)): 8
- B. signalgrass plant response rating [10, 22]: 9
- B. signalgrass plant response rating [10, 23]: 7
- B. signalgrass plant response rating ([10]; Rate 500 g/ha, Postemergence, scale 0 to 10, 0 is no effect, 10 is complete control): 7
- B. signalgrass plant response rating [10, 24]: 9
- Plant response rating, Nutsedge [11, 17]: 0
- Nutsedge plant response rating [11, 18]: 0
- Nutsedge plant response rating [11, 19]: 7
- Nutsedge plant response rating [11, 21]: 0
- Nutsedge plant response rating [11, 22]: 0
- Nutsedge plant response rating [11, 23]: 5
- Nutsedge plant response rating [11, 24]: 0
- Plant response rating, Morningglory [12, 17]: 2
- Morningglory plant response rating [12, 18]: 4
- Morningglory plant response rating [12, 19]: 10
- Morningglory plant response rating [12, 21]: 0
- Morningglory plant response rating [12, 22]: 0
- Morningglory plant response rating [12, 23]: 7
- Morningglory plant response rating [12, 24]: 7
- Plant response rating, Soybean [13, 17]: 2
- Soybean plant response rating [13, 19]: 4
- Soybean plant response rating [13, 21]: 0
- Soybean plant response rating [13, 22]: 0
- Soybean plant response rating [13, 23]: 4
- Soybean plant response rating [13, 24]: 2
- Plant response rating, Wheat [14, 17]: 2
- Wheat plant response rating [14, 19]: 5
- Wheat plant response rating [14, 21]: 0
- Wheat plant response rating [14, 22]: 2
- Wheat plant response rating [14, 23]: 4
- Wheat plant response rating [14, 24]: 9
- Plant response rating, Giant foxtail [15, 17]: 9
- Giant foxtail plant response rating [15, 18]: 9
- Giant foxtail plant response rating [15, 19]: 8
- Giant foxtail plant response rating [15, 20]: lo
- Giant foxtail plant response rating [15, 21]: 10
- Giant foxtail plant response rating [15, 22]: 10
- Giant foxtail plant response rating [15, 23]: 8
- Giant foxtail plant response rating [15, 24]: 10
- Plant response rating, Sugarbeets [16, 17]: 0
- Sugarbeets plant response rating [16, 19]: 7
- Sugarbeets plant response rating [16, 21]: 1
- Sugarbeets plant response rating [16, 22]: 2
- Sugarbeets plant response rating [16, 23]: 0
- Sugarbeets plant response rating [16, 24]: 7
